The species named for experiment [1] is Homo sapiens. Description: Inhibition of cIAP BIR3 domain (unknown origin) at 495 uM relative to control.
In the next experiment the target is T1, Cathepsin K (Homo sapiens, UniProt P43235).
T1 sequence (P43235 whole entry): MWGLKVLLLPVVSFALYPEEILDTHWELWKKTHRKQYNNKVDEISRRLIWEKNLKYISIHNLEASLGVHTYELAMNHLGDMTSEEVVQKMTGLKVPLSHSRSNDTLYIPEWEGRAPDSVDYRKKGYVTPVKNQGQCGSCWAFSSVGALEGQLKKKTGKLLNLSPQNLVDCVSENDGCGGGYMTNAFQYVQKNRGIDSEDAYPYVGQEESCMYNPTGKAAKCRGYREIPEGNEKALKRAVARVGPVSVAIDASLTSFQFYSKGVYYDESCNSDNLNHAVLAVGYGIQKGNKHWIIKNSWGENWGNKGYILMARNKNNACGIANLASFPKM
Description: Inhibition of Cathepsin K (unknown origin).

The target of another experiment is Procathepsin L (Homo sapiens, UniProt P07711). Description: Inhibition of human Cathepsin L.
Procathepsin L, sequence (P07711 whole entry): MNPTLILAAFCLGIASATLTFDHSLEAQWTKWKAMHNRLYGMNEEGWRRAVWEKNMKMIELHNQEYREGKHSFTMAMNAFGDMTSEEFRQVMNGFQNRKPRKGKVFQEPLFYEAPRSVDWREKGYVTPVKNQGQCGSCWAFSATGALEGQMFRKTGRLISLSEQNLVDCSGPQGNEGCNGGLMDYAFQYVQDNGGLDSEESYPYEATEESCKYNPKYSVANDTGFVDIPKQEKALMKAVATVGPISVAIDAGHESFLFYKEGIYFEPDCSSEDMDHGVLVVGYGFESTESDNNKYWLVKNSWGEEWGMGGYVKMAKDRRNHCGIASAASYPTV
For another experiment, the target named is Cathepsin S (Homo sapiens, UniProt P25774). Description: Inhibition of Cathepsin S (unknown origin).
Cathepsin S, sequence (P25774 whole entry, the tested form may be a part): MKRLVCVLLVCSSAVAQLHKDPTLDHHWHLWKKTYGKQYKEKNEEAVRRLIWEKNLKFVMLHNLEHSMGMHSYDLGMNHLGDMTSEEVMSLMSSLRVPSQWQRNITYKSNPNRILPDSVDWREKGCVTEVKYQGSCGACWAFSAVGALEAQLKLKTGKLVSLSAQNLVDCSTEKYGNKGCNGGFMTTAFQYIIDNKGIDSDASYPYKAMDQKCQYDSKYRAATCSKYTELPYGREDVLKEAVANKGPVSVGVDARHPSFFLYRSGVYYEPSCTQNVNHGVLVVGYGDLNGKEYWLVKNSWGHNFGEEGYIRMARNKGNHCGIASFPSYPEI
For experiment [2], the species on record is Homo sapiens. Description: Inhibition of cIAP BIR3 domain (unknown origin) at 1000 uM relative to control.

By inhibition is commonly meant how much of the control response was suppressed. Take `C[C@@H]1CN(CC(=O)N2CCc3ccccc32)CCN1`: the inhibition in the experiment listed under Homo sapiens [1] is 42%.

For orientation: IC50 means the point on the concentration scale where inhibition reaches its midpoint. As for `COc1ccc(S(=O)(=O)[C@@H]2C[C@@H](C(=O)NC3(C#N)CC3)N(C(=O)C3(c4ccc(Cl)cn4)CNC3)C2)c(Cl)c1`, the IC50 on Cathepsin K was 6500 nM; against Procathepsin L, 36 nM; against Cathepsin S, 1.4 nM.

On Cathepsin K, `COc1ccc(S(=O)(=O)[C@@H]2C[C@@H](C(=O)NC3(C#N)CC3)N(C(=O)C3(c4ccc(Cl)cn4)CC3)C2)c(Cl)c1` yielded an IC50 of 11000 nM.

As to `N#CC1(NC(=O)[C@@H]2C[C@@H](S(=O)(=O)c3ccccc3Cl)CN2C(=O)C2(c3ncc(Br)cc3F)CNC2)CC1`, the results for the IC50 against Cathepsin K, on Procathepsin L and against Cathepsin S were 2000 nM, 5 nM and 1 nM, respectively.

In the experiment listed under Homo sapiens [2], `C[C@@H]1CN(CC(=O)N2CCc3ccc(N)cc32)CCN1` came in with an inhibition of 8%.

Values taken from ChEMBL document CHEMBL5137020, “Electrostatic Complementarity in Structure-Based Drug Design” (J Med Chem, 2022).
